Test results taken from ChEMBL document CHEMBL3994663, “Iminosugar-based ceramide mimicry for the design of new CERT START domain ligands” (Bioorg Med Chem, 2017).

target: T1, Ceramide transfer protein (Homo sapiens) (UniProt Q9Y5P4); test: Inhibition of fluorescent ceramide probe binding to recombinant His-tagged START domain of CERT (unknown origin) assessed as bound fluorescent ceramide probe level at 200 pmol preincubated for 30 mins followed by ceramide probe addition after 30 mins by FLINT assay (reference value: 28.4 +/- 2.75%); design: scale not given: the % may be the effect or the level left
T1 sequence (whole entry): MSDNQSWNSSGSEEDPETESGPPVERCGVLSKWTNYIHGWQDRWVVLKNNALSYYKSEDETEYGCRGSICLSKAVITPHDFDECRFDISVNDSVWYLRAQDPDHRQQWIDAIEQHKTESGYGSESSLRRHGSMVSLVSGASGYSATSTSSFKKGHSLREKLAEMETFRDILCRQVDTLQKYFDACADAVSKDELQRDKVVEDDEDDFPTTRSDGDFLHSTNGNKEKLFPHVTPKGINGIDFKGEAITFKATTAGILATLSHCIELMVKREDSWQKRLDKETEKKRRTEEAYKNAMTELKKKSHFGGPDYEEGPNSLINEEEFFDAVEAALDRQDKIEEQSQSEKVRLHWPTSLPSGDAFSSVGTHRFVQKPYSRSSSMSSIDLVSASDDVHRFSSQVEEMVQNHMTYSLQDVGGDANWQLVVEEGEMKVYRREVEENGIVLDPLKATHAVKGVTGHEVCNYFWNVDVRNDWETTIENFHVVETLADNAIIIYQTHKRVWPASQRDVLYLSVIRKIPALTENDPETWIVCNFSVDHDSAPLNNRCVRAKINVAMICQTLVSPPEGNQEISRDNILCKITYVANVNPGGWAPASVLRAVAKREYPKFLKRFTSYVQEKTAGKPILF

| Activity [%] | Compound |
| --- | --- |
| 30.1 | CCCCCCCCCCCCO[C@H]1CN(CCCCCCCCCCCC)C[C@@H](O)[C@@H]1O |
| 36.6 | O[C@H]1[C@H](O)CNC[C@@H]1O |

The remaining lines, values behind:

| Compound | Activity [%] |
| --- | --- |
| CCCCCCCCCCCCO[C@H]1CNC[C@@H](O)[C@@H]1O | 41 |
| CCCCCCCCCCCCN1C[C@@H](O)[C@H](O)[C@@H](O)C1 | 48 |
| CCCCCCCCCCCCO[C@@H]1CN(CCCCCCCCCCCC)C[C@@H](O)[C@@H]1O | 54.3 |
| CCCCCCCCCCCC(=O)N[C@@H](CO)C[C@H](O)c1ccccc1 | 25.5 |
| CCCCCCCCCCCCO[C@@H]1CNC[C@@H](O)[C@@H]1O | 61.3 |
| CCCCCCCCCCCCO[C@H]1CNC[C@@H](OCCCCCCCCCCCC)[C@@H]1O | 51.1 |
